The target in one assay is T1, HMG-CoA synthase (Rattus norvegicus, UniProt P17425).
T1 construct: The livers from male Charles River CD rats (225-350 g) were homogenized; from tissue; host or cells: rat liver (male Charles River CD rats), 100,000 x g supernatant, ammonium sulfate and DEAE-52 fraction
T1 sequence (P17425 1-520): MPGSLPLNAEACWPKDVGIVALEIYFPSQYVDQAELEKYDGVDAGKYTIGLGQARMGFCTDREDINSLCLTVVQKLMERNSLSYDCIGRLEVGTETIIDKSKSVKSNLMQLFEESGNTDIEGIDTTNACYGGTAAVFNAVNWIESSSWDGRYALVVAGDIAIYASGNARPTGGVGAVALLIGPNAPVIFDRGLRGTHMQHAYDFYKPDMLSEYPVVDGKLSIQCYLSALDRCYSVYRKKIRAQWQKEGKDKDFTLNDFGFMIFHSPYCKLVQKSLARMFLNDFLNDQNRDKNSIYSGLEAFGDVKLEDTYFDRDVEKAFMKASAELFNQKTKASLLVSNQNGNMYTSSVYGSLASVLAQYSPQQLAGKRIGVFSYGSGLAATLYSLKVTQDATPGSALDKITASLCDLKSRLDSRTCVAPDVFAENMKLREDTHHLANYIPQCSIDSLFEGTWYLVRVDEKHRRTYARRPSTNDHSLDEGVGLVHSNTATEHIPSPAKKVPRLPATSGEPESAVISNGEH
As to the kind of experiment: HMG-CoA Synthase Inhibition Assay. In kind it is biochemical. To be noted: Table I; rat liver enzyme, 1-[14C]-acetyl-CoA incorporation. As to the method: The intrinisic HMG-CoA synthase inhibition activity of the compounds of this invention is measured by the standard in vitro protocol described below:
The livers from male Charles River CD rats (225-350 g) were homogenized in 0.25 M sucrose which was adjusted with phenylmethylsulfonylfluoride (PMSF) and N-p-tosyl-1-lysine chloromethyl ketone (TLCK) so that the final concentration of each was […], respectively. The homogenate was centrifuged at 15,000× g for 20 minutes, the supernatant filtered through a fine nylon screen to remove most of the fat layer and recentrifuged at 100,000× g for 1 hour. This supernatant was removed and 1 M potassium phosphate, dithiothreitol (DTT) and ethylene glycolbis(β-aminoethyl ether)-N,N,N',N'-tetraacetic acid (EGTA) added to give a final concentration of 0.1 M (pH 7.2), 0.5 mM and 0.1 mM, respectively. Solid ammonium sulfate was added to 50% saturation to the protein solution, it was centrifuged at 15,000× g and the supernatant discarded. This precipitated protein could be stored at -70° C. for at least one month with very little loss of activity. The ammonium sulfate precipitate was dissolved in an minimal amount of 0.06 M potassium phosphate buffer (pH 7.2) containing 0.5 mM dithiothreitol and 0.1 mM EGTA (referred to as 0.06 M phosphate buffer) and dialyzed overnight against 2 liters of the same buffer to remove the ammonium sulfate and to inactivate HMG-CoA lyase [Clinkenbeard, et al., J. Biol. Chem. 250, 3108-3116(1975)].
The dialyzed extract was added to a column of DEAE-52 (Whatman) which had been equilibrated with 0.06 M phosphate buffer (10 mg of protein in 1 ml bed volume of the resin). The DEAE-cellulose was eluted with 0.06 M phosphate buffer until the optical density at 280 nm was essentially zero. This fraction contained the β-ketoacetyl-CoA thiolase activity. The HMG-CoA synthase was eluted from the column with 0.1 M phosphate buffer (pH 7.2) containing 0.5 mM DTT and […] EGTA, and was virtually free of all thiolase activity. The protein was precipitated by the addition of ammonium sulfate to give 50% saturation. This solution was stirred for 10 minutes at 4° C. and the precipitate collected by centrifugation at 15,000 rpm for 10 minutes. The supernatant was discarded and the precipitate dissolved in a minimum of 0.06 M phosphate buffer, pH 7.2 (about 10 ml) and the enzyme stored at -80° C.
HMG-CoA Synthase Inhibition Assay
Enzyme protein (ca. 24 mg) was added to a solution containing […] Tris-HCl (pH 8.0), 11.7 μM MgCl2, 1.17 μM ethylenediaminetetraacetic acid (EDTA), 0.58 μM dithiothreitol, and the indicated concentrations of the test compound (added as a 2 mg/ml solution in dimethylsulfoxide). The incubation took place in a volume of 0.085 ml at 30° in a shaking water bath. After 5 minutes, […] of a solution containing acetoacetyl-CoA and 0.1 μCi of 1-[^14 C]-acetyl-CoA was added to give a final concentrations of 0.1 and 0.4 μM, respectively. The incubation was continued for 10 more minutes and the reaction stopped by the addition of […] of the assay mixture to 0.2 ml of 6N HCl in a glass scintillation vial. The vial was heated for 1 hour at 120° after which time 0.2 ml more of 6N HCl was again added to each vial and the heating continued for another hour. Following this, 1.0 ml of 0.9% saline was added to each vial and finally 10 ml of scintillation liquid. Radioactivity was determined in a Packard Tri-Carb liquid scintillation counter. Percent inhibition is calculated by the formula: [formula]
IC50 values were determined by plotting the log of the concentration of the test compound verses the percentage inhibition and fitting a straight line to the resulting data by using the least squares method.
`CC[C@@H]1C(=O)N(S(=O)(=O)c2ccc(C)cc2)[C@@H]1COC(=O)c1ccc(OCc2ccccc2)cc1` (relative stereo) [Table I q] had an IC50 of 40 nM.
In turn, `CC[C@@H]1C(=O)N(S(=O)(=O)c2ccc(C)cc2)[C@@H]1COC(=O)c1ccnc2ccccc12` (relative stereo) [Table I r] gave an IC50 of 25 nM.
`CC[C@@H]1C(=O)N(S(=O)(=O)c2ccc(C)cc2)[C@@H]1COC(=O)c1cccs1` (relative stereo) [Table I s]: the half-maximal inhibitory concentration (IC50) is 38 nM.
`CC[C@@H]1C(=O)N(S(=O)(=O)c2ccc(C)cc2)[C@@H]1COC(=O)c1cccc(NS(C)(=O)=O)c1` (relative stereo) [Table I b]: the IC50 stood at 25 nM.
`CC[C@@H]1C(=O)N(S(=O)(=O)c2ccc(C)cc2)[C@@H]1COC(=O)c1cc2ccccc2oc1=O` (relative stereo) [Table I ee] registered an IC50 of 50 nM.
Molecule `C=CCOc1c(OC)cc(C(=O)OC[C@@H]2[C@H](CC)C(=O)N2S(=O)(=O)c2ccc(C)cc2)cc1[N+](=O)[O-]` (relative stereo) [Table I ll] showed an IC50 of 160 nM.
On to `CC[C@@H]1C(=O)N(S(=O)(=O)c2ccc(C)cc2)[C@@H]1COC(=O)c1cnc(OC)c(OC)c1` (relative stereo) [Table I oo], for which the IC50 is 38 nM.
The molecule `CC[C@H]1C(=O)N(S(=O)(=O)c2ccc(C)cc2)[C@H]1COC(=O)c1ccc(OC)cc1` [Table I j] showed an IC50 of 200 nM.
On to `CC[C@@H]1C(=O)N(S(=O)(=O)c2ccc(C)cc2)[C@@H]1COC(=O)c1ccoc1` (relative stereo) [Table I o], for which half-maximal inhibition (IC50) was put at 320 nM.
In the case of `CC[C@@H]1C(=O)N(S(=O)(=O)c2ccc(C)cc2)[C@@H]1COC(=O)c1csc(OC)n1` (relative stereo) [Table I qq], the IC50 came out at 45 nM.
Still for that read-out and setting: in the case of `CC[C@@H]1C(=O)N(S(=O)(=O)c2ccc(C)cc2)[C@@H]1COC(=O)c1ccc(NS(C)(=O)=O)cc1` (relative stereo) [Table I nn] it was 16 nM.
Molecule `CC[C@@H]1C(=O)N(S(=O)(=O)c2ccc(C)cc2)[C@@H]1COC(=O)c1ccc(C(=O)OC)cc1` (relative stereo) [Table I ii] registered an IC50 of 8.5 nM.
For the molecule `CC[C@@H]1C(=O)N(S(=O)(=O)c2ccc(C)cc2)[C@@H]1COC(=O)c1cccnc1` (relative stereo) [Table I bb], the IC50 amounted to 64 nM.
As for `CC[C@@H]1C(=O)N(S(=O)(=O)c2ccc(C)cc2)[C@@H]1COC(=O)c1ccnnc1` (relative stereo) [Table I m], half-maximal inhibition (IC50) was put at 82 nM.
For the molecule `CC[C@@H]1C(=O)N(S(=O)(=O)c2ccc(C)cc2)[C@@H]1COC(=O)c1ccc(C(=O)OC(c2ccccc2)c2ccccc2)cc1` (relative stereo) [Table I w], the IC50 is 62 nM.
In the case of `COc1ccc(C(=O)OC[C@@H]2[C@H](C(C)C)C(=O)N2S(=O)(=O)c2ccc(C)cc2)cc1` (relative stereo) [Table I hh], 130 nM corresponded to half-maximal inhibition (IC50).
Molecule `CC[C@@H]1C(=O)N(S(=O)(=O)c2ccc(C)cc2)[C@@H]1COC(=O)c1ccccn1` (relative stereo) [Table I e] registered an IC50 of 54 nM.
In turn, `CC[C@@H]1C(=O)N(S(=O)(=O)c2ccc(C)cc2)[C@@H]1COC(=O)c1cccc([N+](=O)[O-])c1` (relative stereo) [Table I k] had an IC50 of 39 nM.

Still in this assay, the particulars now being: Table II; rat liver enzyme, 1-[14C]-acetyl-CoA incorporation.
On to `CC[C@H]1C(=O)N(S(=O)(=O)c2ccc(C)cc2)[C@H]1COC(=O)/C=C/c1cc(OC)c(OC)c(OC)c1` (relative stereo) [Table II t], for which half-maximal inhibition (IC50) was put at 38 nM.
With `CC[C@@H]1C(=O)N(S(=O)(=O)c2ccc(C)cc2)[C@@H]1COC(=O)[C@H](OC)c1ccccc1` [Table II d, cis-(3S), (4S)-3-Ethyl-4-[(R)-α-methoxyphenylacetoxyl]methyl-N-toluenesulfonyl-2-azetidinone], it took 18 nM to reach half-maximal inhibition (IC50).
In the case of `CC[C@@H]1C(=O)N(S(=O)(=O)c2ccc(C)cc2)[C@@H]1COC(=O)COc1ccccc1` (relative stereo) [Table II n], inhibition was half-maximal at 24 nM (IC50).
Regarding `CC[C@H]1C(=O)N(S(=O)(=O)c2ccc(C)cc2)[C@H]1COC(=O)/C=C/c1ccc(OC)c(OC)n1` (relative stereo) [Table II z], the midpoint of inhibition, the IC50, lay at 27 nM.
Still for that read-out and setting: in the case of `CC[C@@H]1C(=O)N(S(=O)(=O)c2ccc(C)cc2)[C@@H]1COC(=O)/C=C/c1ccc(OC)cc1` (relative stereo) [Table II a] it was 9.5 nM; in that of `CC[C@H]1C(=O)N(S(=O)(=O)c2ccc(C)cc2)[C@H]1COC(=O)Nc1ccc(C)cc1` (relative stereo) [Table II v], 52 nM.
In turn, `CC[C@@H]1C(=O)N(S(=O)(=O)c2ccc(C)cc2)[C@@H]1COC(=O)/C=C/c1cccnc1` (relative stereo) [Table II h] came in with an IC50 of 31 nM.
Molecule `CO[C@H](C(=O)OC[C@@H]1CC(=O)N1S(=O)(=O)c1ccc(C)cc1)c1ccccc1` [Table II e] yielded an IC50 of 42 nM.
The molecule `CCCOc1c(Br)cc(/C=C/C(=O)OC[C@@H]2[C@H](CC)C(=O)N2S(=O)(=O)c2ccc(C)cc2)cc1OC` (relative stereo) [Table II u] had an IC50 of 90 nM.
On the same count and under the same terms, in the case of `CCOc1ccc(CC(=O)OC[C@@H]2[C@H](CC)C(=O)N2S(=O)(=O)c2ccc(C)cc2)cc1C` (relative stereo) [Table II o] it was 2.1 nM.

The assay is the same for the next values; noted with them: Table III; rat liver enzyme, 1-[14C]-acetyl-CoA incorporation.
On to `CC[C@H]1C(=O)N(S(=O)(=O)c2ccc(C)cc2)[C@H]1COS(=O)(=O)c1ccc(C)cc1` (relative stereo) [Table III], for which the IC50 was found to be 110 nM.

The same assay, now with this note: Table IV; rat liver enzyme, 1-[14C]-acetyl-CoA incorporation.
With `CC[C@@H]1C(=O)N(S(=O)(=O)c2ccc(C)cc2)[C@H]1C(C)=Cc1ccccc1` (relative stereo) [Table IV e], the concentration for half-maximal inhibition (IC50) was found to be 50000 nM.
`Cc1ccc(S(=O)(=O)N2C(=O)[C@H](CO)[C@H]2C=Cc2ccccc2)cc1` (relative stereo) [Table IV c] yielded an IC50 of 1100 nM.

Still in this assay, the particulars now being: Table V; rat liver enzyme, 1-[14C]-acetyl-CoA incorporation.
For the molecule `CC[C@H]1C(=O)N(S(=O)(=O)c2ccc(C)cc2)[C@H]1CNc1ccc(C(=O)O)cc1` (relative stereo) [Table V a, (±) cis-3-Ethyl-4-hydroxycarbonylphenylaminomethyl-N-toluenesulfonyl-2-azetidinone], the IC50 came to 9900 nM.
The same measure, in the same setting: as for `CCC1C(=O)N(S(=O)(=O)c2ccc(C)cc2)C1C(OC(=O)c1ccc(OC)cc1)c1ccccc1` (stereo not drawn) [Table V e], the figure is 2000 nM.
Regarding `CCC1C(=O)N(S(=O)(=O)c2ccc(C)cc2)C1C(C)Cc1ccccc1` (stereo not drawn) [Table V d], the IC50 came out at 175 nM.

Staying with this assay, now noted: Table VI; rat liver enzyme, 1-[14C]-acetyl-CoA incorporation.
On to `Cc1ccc(S(=O)(=O)N2C(=O)C(C)(C)C2C2OC2c2ccccc2)cc1` (stereo not drawn) [Table VI d], for which 110 nM corresponded to half-maximal inhibition (IC50).
Regarding `Cc1ccc(S(=O)(=O)N2C(=O)C(C)(C)C2CCc2ccccc2)cc1` (stereo not drawn) [Table VI a], the IC50 was 1800 nM.

(Values after US4983597A, “Beta-lactams as anticholesterolemic agents” (Merck & Co., Inc., priority 1989, dated 1991).)
